# In US20100099113A1, “MINIMIZED SMALL PEPTIDES WITH HIGH AFFINITY FOR FACTOR VIII AND FACTOR VIII-LIKE PROTEINS” (Technische Universitat Muenchen, priority 2006, published 2010):
# Where no end group is shown, it is not given here. [ ]: non-standard residue; d: D form. Bpa = N[C@@H](Cc1ccc(C(=O)c2ccccc2)cc1)C(=O)O; 1Nal = N[C@@H](Cc1cccc2ccccc12)C(=O)O; Bta = N[C@@H](Cc1csc2ccccc12)C(=O)O; NMeY = CN[C@@H](Cc1ccc(O)cc1)C(=O)O; Phg = N[C@H](C(=O)O)c1ccccc1; Abu = CC[C@H](N)C(=O)O
# Biological target: T1, Plasma-derived (pd-) human Factor VIII (Homo sapiens, UniProt P00451)
# T1 construct: from tissue; host or cells: human blood plasma (FVIII concentrate)
# T1 sequence (P00451 20-1667 limits assumed): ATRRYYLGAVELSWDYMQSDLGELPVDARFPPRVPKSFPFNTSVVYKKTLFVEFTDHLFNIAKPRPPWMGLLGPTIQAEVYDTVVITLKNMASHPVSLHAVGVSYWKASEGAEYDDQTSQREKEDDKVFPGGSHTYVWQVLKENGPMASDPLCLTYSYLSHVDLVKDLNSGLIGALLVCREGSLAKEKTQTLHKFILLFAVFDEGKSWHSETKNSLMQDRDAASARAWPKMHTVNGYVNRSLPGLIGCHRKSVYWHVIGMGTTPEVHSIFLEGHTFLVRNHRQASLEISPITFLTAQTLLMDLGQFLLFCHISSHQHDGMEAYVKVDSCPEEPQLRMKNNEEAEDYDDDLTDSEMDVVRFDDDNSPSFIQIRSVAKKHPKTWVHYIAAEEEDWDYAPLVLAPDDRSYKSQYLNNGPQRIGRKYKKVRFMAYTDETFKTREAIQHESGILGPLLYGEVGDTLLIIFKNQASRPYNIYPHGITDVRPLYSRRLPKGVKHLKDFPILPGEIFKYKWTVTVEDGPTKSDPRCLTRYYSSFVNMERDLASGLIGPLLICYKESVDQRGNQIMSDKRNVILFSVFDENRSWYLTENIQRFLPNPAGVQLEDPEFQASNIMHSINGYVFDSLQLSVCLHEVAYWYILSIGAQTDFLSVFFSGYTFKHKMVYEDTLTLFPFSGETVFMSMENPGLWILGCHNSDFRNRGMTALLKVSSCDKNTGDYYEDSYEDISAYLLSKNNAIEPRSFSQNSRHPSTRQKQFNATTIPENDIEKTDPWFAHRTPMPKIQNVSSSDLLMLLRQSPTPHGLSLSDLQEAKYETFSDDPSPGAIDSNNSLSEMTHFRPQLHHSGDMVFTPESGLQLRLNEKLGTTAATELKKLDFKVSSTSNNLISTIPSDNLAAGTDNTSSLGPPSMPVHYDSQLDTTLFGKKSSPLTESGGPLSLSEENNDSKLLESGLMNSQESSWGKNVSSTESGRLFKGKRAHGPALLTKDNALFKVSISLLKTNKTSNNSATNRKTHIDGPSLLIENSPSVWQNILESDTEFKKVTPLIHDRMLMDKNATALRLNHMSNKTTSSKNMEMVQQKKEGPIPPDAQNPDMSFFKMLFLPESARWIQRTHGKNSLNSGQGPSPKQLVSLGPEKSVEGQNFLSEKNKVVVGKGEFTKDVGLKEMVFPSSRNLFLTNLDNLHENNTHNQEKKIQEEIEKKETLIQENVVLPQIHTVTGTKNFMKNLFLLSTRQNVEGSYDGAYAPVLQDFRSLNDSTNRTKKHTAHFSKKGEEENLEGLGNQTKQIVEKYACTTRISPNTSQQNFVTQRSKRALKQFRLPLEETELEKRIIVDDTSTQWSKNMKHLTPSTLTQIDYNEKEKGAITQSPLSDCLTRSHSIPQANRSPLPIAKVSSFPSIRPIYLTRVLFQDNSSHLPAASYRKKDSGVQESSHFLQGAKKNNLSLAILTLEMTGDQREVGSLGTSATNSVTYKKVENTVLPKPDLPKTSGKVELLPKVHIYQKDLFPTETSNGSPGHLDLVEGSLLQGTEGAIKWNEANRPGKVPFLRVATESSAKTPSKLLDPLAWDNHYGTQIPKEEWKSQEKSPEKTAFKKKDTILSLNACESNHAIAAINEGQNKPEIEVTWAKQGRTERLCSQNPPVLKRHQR
# T1 sequence (P00451 1668-2351 limits assumed): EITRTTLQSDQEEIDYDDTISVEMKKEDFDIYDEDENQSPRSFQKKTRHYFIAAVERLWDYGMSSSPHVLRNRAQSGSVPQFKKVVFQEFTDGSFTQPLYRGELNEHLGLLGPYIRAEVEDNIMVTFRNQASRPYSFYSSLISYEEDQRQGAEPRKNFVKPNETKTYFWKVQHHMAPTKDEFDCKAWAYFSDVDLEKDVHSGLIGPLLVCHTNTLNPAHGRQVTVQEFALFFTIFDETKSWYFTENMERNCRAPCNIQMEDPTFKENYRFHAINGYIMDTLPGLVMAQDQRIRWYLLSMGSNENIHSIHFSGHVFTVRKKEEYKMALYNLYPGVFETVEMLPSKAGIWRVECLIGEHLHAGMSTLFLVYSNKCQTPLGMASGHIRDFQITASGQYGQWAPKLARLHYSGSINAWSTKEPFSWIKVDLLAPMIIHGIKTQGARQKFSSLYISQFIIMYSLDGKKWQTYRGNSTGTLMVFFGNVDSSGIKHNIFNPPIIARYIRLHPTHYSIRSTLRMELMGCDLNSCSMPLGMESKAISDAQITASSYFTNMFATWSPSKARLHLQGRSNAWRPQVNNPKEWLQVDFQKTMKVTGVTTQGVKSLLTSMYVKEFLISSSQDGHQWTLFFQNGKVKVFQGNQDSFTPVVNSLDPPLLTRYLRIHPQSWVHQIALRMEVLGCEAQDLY
# Assay: Binding of 125I-labeled pd-FVIII to peptide-coated Toyopearl resin (micro-beads assay)
# Conditions: for % Binding pdFVIII: peptide immobilized on Toyopearl AF-Epoxy-650M resin, 125I-pd-FVIII, 2 hours room temperature, percent of maximal achievable binding (anti-FVIII Mab 8860-coated resin), mean ± SD of four determinations
# Description: Peptides S1 to S84 were immobilized on the Toyopearl AF-Epoxy-650M resin (Tosoh Biosep) as described by Jungbauer et al. For immobilization, 2.5 mg of each peptide was dissolved in 0.25 mL of the immobilization buffer (0.2 M sodium bicarbonate, pH 10.3), and 0.036 g of the dry resin powder (corresponding to 0.125 mL of swollen resin) was added, followed by incubation of the mixture with gentle rotation for 48 hours. Upon incubation for 48 hours the resin was washed once with immobilization buffer, once with 1 M NaCl and then 3 times with binding buffer, and binding of ^125I-labeled pd-FVIII to the peptide-coated and control resin was tested. The coupling density of each peptide in each of the reported experiments was as mentioned in Table 1. The control 0.25 mL portion of the resin was similarly treated in parallel experiment in the absence of peptide and was subsequently used as a control (designated as Background) in ^125I-pd-FVIII binding experiments. ^125I-pd-FVIII Bound/Background ratios were calculated as the amount of ^125I-pd-FVIII, bound to an immobilized peptide, divided by that bound to uncoated control resin, prepared as described above. This ratio represents a Signal/Noise ratio for the micro-beads assay, since ^125I-pd-FVIII bound to peptide represents the signal value and ^125I-pd-FVIII bound to peptide-uncoated resin represents the background (noise) value.
# Plasma-derived (pd-) human Factor VIII (FVIII) was purified from concentrate by immunoaffinity chromatography on an anti-FVIII monoclonal antibody column followed by subsequent concentration of pd-FVIII by ion-exchange chromatography using Resource Q HR5/5 column.
# The resin with immobilized peptides was washed in the binding buffer (0.01 M Hepes, 0.1 M NaCl, 5 mM CaCl2, 0.01% Tween-80). Subsequently, the resin was diluted in the binding buffer as 1:7 slurry and aliquoted into Eppendorf tubes (40 μL per tube). ^125I-pd-FVIII (100000 cpm in 10 μL) was added to the tubes and the volume of the mixture was adjusted to 100 μL by adding 50 μL of the binding buffer containing 4% BSA to give a 2% final concentration of BSA. After 2 hours of incubation at room temperature on a rotator, the samples were washed 4 times in the binding. After each wash the tubes were centrifuged at 5000 rpm for 1 min in an Eppendorf microcentrifuge, supernatant was discarded, and the resin was re-suspended in the washing buffer, followed by centrifugation under the same conditions. After four washes the tubes with pellet without supernatant were counted for radioactivity. The resin without peptide was processed similarly to account for non-specific pd-FVIII binding to tubes and resin itself, and the radioactivity in this control tube was considered as a background value. Since ^125I-pd-FVIII contains the some fraction damaged during radiolabeling, binding was calculated as a percent of maximal achievable binding, determined in separate experiment with anti-FVIII Mab 8860-coated resin.
# All the measurements were performed in duplicates. Each experiment was performed using two independently prepared immobilized peptide samples. The data presented in each table are the mean values of the four determinations: duplicate determination in the two assays performed with beads on which peptides were independently immobilized on the different days. The value of standard deviation of the above quadruplicate determinations (duplicate determinations in two independent experiments) were typically less than 10% of the measured values of ^125I-pd-FVIII binding to peptides.
# [1] = Table 2, peptides with C-terminal cysteine linker immobilized on Toyopearl AF-Epoxy-650M resin
# [2] = Table 3, hexapeptides with linker cysteine within the binding sequence
Substance,% Binding pdFVIII [%],% Binding Factor VIII [1] [%],% Binding Factor VIII [2] [%]
(N-Me)S-W-E-Y-C [S21],48.4 ± 3.7,,
(N-Me)Y-C-S-W-E-Y ([NMeY]CSWEY) [S69],7.1 ± 0.7,,
Ac-H-S-W-E-Y-C (Ac-HSWEYC) [S31],48.9 ± 3.0,49,
Ac-S-W-E-Y-C [S30],42.6 ± 1.3,43,
Ac-Y-C-S-W-E-Y (Ac-YCSWEY) [S9],81.6 ± 2.8,,82
Ac-Y-C-S-W-E-Y-NH2 (Ac-YCSWEY-NH2) [S2],59.2 ± 4.6,,
Ac-Y-C-T-W-D-Y (Ac-YCTWDY) [S14],82.3 ± 1.4,,
Ac-Y-C-T-W-D-Y-NH2 (Ac-YCTWDY-NH2) [S4],58.5 ± 2.4,,
Ac-Y-H-S-W-E-Y-C (Ac-YHSWEYC) [S32],62.2 ± 4.4,62,
EYHSWEYC [reference compound],,50,
H-S-W-E-Y-C (HSWEYC) [S29],54.4 ± 4.9,54,
"S-(1-Nal)-E-Bip(4,4′)-C [S62]",38.6 ± 0.4,,
"S-(2-Nal)-E-Bip(4,4′)-C [S63]",41.4 ± 1.2,,
"S-Bip(4,4′)-E-Bpa-C [S64]",36.2 ± 1.5,,
S-Bpa-E-(1-Nal)-C [S57],35.4 ± 6.6,,
S-Bpa-E-(2-Nal)-C [S58],42.0 ± 5.3,,
"S-Bpa-E-Bip(4,4′)-C [S59]",30.9 ± 2.1,,
S-Bpa-E-Bpa-C [S61],1.1 ± 3.3,,
S-Bpa-E-Phe(4-Cl)-C [S60],33.9 ± 3.2,,
S-Bpa-E-Phg-C [S72],41.3 ± 1.4,,
S-Bpa-E-Y-C [S71],30.6 ± 0.4,,
S-Bta-E-Bpa-C [S65],39.2 ± 2.4,,

Substance,% Binding pdFVIII [%],% Binding Factor VIII [1] [%],% Binding Factor VIII [2] [%]
"S-Phe(3,4-Cl)-E-Bpa-C [S67]",47.7 ± 0.0,,
S-Phe(4-Cl)-E--Bpa-C [S66],40.0 ± 2.5,,
S-W-E-Bpa-C [S73],40.0 ± 2.8,,
Y-C-(N-Me)S-W-E-Y [S24],14.4 ± 0.4,,
Y-C-A-W-D-Y (YCAWDY) [S16],72.0 ± 15.5,,72
Y-C-A-W-E-Y (YCAWEY) [S81],72.1 ± 7.2,,
Y-C-S-(N-Me)W-E-Y [S70],72.2 ± 1.7,,
Y-C-S-W-(N-Me)E-Y [S25],45.2 ± 2.5,,
Y-C-S-W-D-Y (YCSWDY) [S11],79.9 ± 4.0,,80
Y-C-S-W-E-(N-Me)Y [S26],48.8 ± 3.1,,
Y-C-S-W-E-Y (YCSWEY) [S7],64.1 ± 3.2,,64
Y-C-S-W-E-Y-NH2 (YCSWEY-NH2) [S1],41.8 ± 3.2,,
Y-C-T-W-D-Y (YCTWDY) [S12],74.2 ± 4.2,,74
Y-C-T-W-D-Y-NH2 (YCTWDY-NH2) [S3],42.3 ± 4.3,,
Y-C-T-W-E-Y (YCTWEY) [S10],80.3 ± 1.3,,80
Y-C-V-W-D-Y (YCVWDY) [S18],72.0 ± 1.2,,72
Y-C-V-W-E-Y (YCVWEY) [S82],94.1 ± 4.70,,
Y-F-(N-Me)S-W-E-Y-C [S22],47.6 ± 4.6,,
Y-F-S-W-(N-Me)E-Y-C [S23],53.1 ± 0.3,,
"Y-H-S-Phe(3,4-Cl)-E-Y-C [S77]",34.4 ± 3.2,,
Y-H-V-W-E-Y-C (YHVWEYC) [S76],26.6 ± 1.3,,
Y-W-E-Y-C [S79],47.7 ± 0.45,,

Substance,% Binding pdFVIII [%],% Binding Factor VIII [1] [%],% Binding Factor VIII [2] [%]
Y-Y-S-W-E-Y-C (YYSWEYC) [S68],54.3 ± 2.1,,
Y-c-S-W-E-Y [S6],55.8 ± 2.3,,
Y-f-(N-Me)S-W-E-Y-C [S27],57.5 ± 4.6,,
Y-f-S-W-(N-Me)E-Y-C [S28],65.1 ± 2.5,,
Y-f-S-W-E-Y-C [S34],53.6 ± 2.7,54,
Y-homoC-S-W-E-Y [S5],59.7 ± 3.8,,
YCS[1Nal]EY [S80],35.3 ± 3.0,,
YCS[Bpa]EY [S15],49.4 ± 2.2,,
YF[Abu]WEFC [S33],53.4 ± 5.3,53,
YHSWE[Phg]C [S74],34.9 ± 0.4,,
YHS[Bpa]EYC [S37],39.1 ± 1.2,,
YHS[Bpa]E[Phg]C [S75],28.1 ± 0.3,,
YHS[Bta]EYC [S78],6.0 ± 0.8,,
YH[Abu]WDYC [S39],46.4 ± 0.8,,
c-y-e-w-s [S35],37.1 ± 1.0,,
y-d-w-a-c-y [S17],75.1 ± 0.6,,75
y-d-w-t-c-y [S13],53.8 ± 0.5,,
y-d-w-v-c-y [S19],73.4 ± 5.6,,73
y-e-w-a-c-y [S83],53.6 ± 2.5,,
y-e-w-s-c-y [S8],69.4 ± 6.6,,69
y-e-w-v-c-y [S84],77.0 ± 4.2,,
